# Assay results published in US6476060B2, “4,5-dihydro-1H-pyrazole derivatives having CB1-antagonistic activity” (Solvay Pharmaceuticals, B.V., priority 2000, dated 2002).
row,melting point [°C],Compound
1,94 to 96,"O=S(=O)(NCCN1CC(c2ccccc2)C(c2ccc(Cl)cc2)=N1)c1cccc(C(F)(F)F)c1 (stereo not drawn) [IX, N-[2-(3-(4-Chlorophenyl)-4,5-dihydro-4-phenyl-1H-pyrazol-1-yl)ethyl]-3-(trifluoromethyl)benzenesulfonamide]"
2,180 to 182,"CNC(=NC(=O)c1cccc(C(F)(F)F)c1)N1CC(c2ccccc2)C(c2ccc(Cl)cc2)=N1 (stereo not drawn) [V, N-Methyl-N′-(3-(trifluoromethyl)benzoyl)-3-(4-chlorophenyl)-4,5-dihydro-4-phenyl-1H-pyrazole-1-carboxamidine]"
3,118 to 119,"O=S(=O)(CCN1CC(c2ccccc2)C(c2ccc(Cl)cc2)=N1)c1cccc(C(F)(F)F)c1 (stereo not drawn) [VIII, 3-(4-Chlorophenyl)-4,5-dihydro-4-phenyl-1-[2-((3-(trifluoromethyl)phenyl)-sulfonyl)ethyl]-1H-pyrazole]"
